Test results published in article PMC4716540 (British Journal of Cancer, 2015).

Test system: patients with confirmed relapsed/refractory MM, CLL, or NHL
Assay: Phase I safety and tolerability: adverse events, DLT, MTD, RP2D
Assay type: in vivo, human

SMILES: CCc1c(O)cc(O)c(C(=O)c2ccc(OCCN3CCOCC3)c(OC)c2)c1CC(=O)N(CCOC)CCOC [KW-2478]
- Number of treatment-related AEs per patient (average) (14 mg m^–2): 1.0
- AE (treatment-emergent) (14 mg m^–2 (n=3)): 3 (100.0) No. of patients (%)
- Abdominal pain (any AE) (14 mg m^–2 (n=3)): 0 No. of patients (%)
- Acne (any AE) (14 mg m^–2 (n=3)): 0 No. of patients (%)
- Anaemia (any AE) (14 mg m^–2 (n=3)): 0 No. of patients (%)
- Anorexia (any AE) (14 mg m^–2 (n=3)): 0 No. of patients (%)
- Back pain (any AE) (14 mg m^–2 (n=3)): 1 (33.3) No. of patients (%)
- Diarrhoea (any AE) (14 mg m^–2 (n=3)): 0 No. of patients (%)
- Dizziness (any AE) (14 mg m^–2 (n=3)): 0 No. of patients (%)
- Fatigue (any AE) (14 mg m^–2 (n=3)): 1 (33.3) No. of patients (%)
- Haemoglobin decreased (any AE) (14 mg m^–2 (n=3)): 0 No. of patients (%)
- Hair disorder (any AE) (14 mg m^–2 (n=3)): 0 No. of patients (%)
- Headache (any AE) (14 mg m^–2 (n=3)): 1 (33.3) No. of patients (%)
- Herpes simplex infection (any AE) (14 mg m^–2 (n=3)): 0 No. of patients (%)
- Hypertension (any AE) (14 mg m^–2 (n=3)): 0 No. of patients (%)
- LRTI (any AE) (14 mg m^–2 (n=3)): 0 No. of patients (%)
- Musculoskeletal chest pain (any AE) (14 mg m^–2 (n=3)): 0 No. of patients (%)
- Nausea (any AE) (14 mg m^–2 (n=3)): 1 (33.3) No. of patients (%)
- Oral herpes (any AE) (14 mg m^–2 (n=3)): 0 No. of patients (%)
- Rhinitis (any AE) (14 mg m^–2 (n=3)): 1 (33.3) No. of patients (%)
- Serious AE (14 mg m^–2 (n=3)): 0 No. of patients (%)
- Treatment-related AE (14 mg m^–2 (n=3)): 2 (66.7) No. of patients (%)
- Vomiting (any AE) (14 mg m^–2 (n=3)): 0 No. of patients (%)
- AE (treatment-emergent) (28 mg m^–2 (n=3)): 3 (100.0) No. of patients (%)
- Abdominal pain (any AE) (28 mg m^–2 (n=3)): 0 No. of patients (%)
- Acne (any AE) (28 mg m^–2 (n=3)): 1 (33.3) No. of patients (%)
- Anaemia (any AE) (28 mg m^–2 (n=3)): 0 No. of patients (%)
- Anorexia (any AE) (28 mg m^–2 (n=3)): 0 No. of patients (%)
- Back pain (any AE) (28 mg m^–2 (n=3)): 1 (33.3) No. of patients (%)
- Diarrhoea (any AE) (28 mg m^–2 (n=3)): 0 No. of patients (%)
- Dizziness (any AE) (28 mg m^–2 (n=3)): 0 No. of patients (%)
- Fatigue (any AE) (28 mg m^–2 (n=3)): 0 No. of patients (%)
- Haemoglobin decreased (any AE) (28 mg m^–2 (n=3)): 0 No. of patients (%)
- Hair disorder (any AE) (28 mg m^–2 (n=3)): 1 (33.3) No. of patients (%)
- Headache (any AE) (28 mg m^–2 (n=3)): 0 No. of patients (%)
- Herpes simplex infection (any AE) (28 mg m^–2 (n=3)): 1 (33.3) No. of patients (%)
- Hypertension (any AE) (28 mg m^–2 (n=3)): 0 No. of patients (%)
- LRTI (any AE) (28 mg m^–2 (n=3)): 0 No. of patients (%)
- Musculoskeletal chest pain (any AE) (28 mg m^–2 (n=3)): 0 No. of patients (%)
- Nausea (any AE) (28 mg m^–2 (n=3)): 1 (33.3) No. of patients (%)
- Oral herpes (any AE) (28 mg m^–2 (n=3)): 1 (33.3) No. of patients (%)
- Rhinitis (any AE) (28 mg m^–2 (n=3)): 1 (33.3) No. of patients (%)
- Serious AE (28 mg m^–2 (n=3)): 0 No. of patients (%)
- Treatment-related AE (28 mg m^–2 (n=3)): 2 (66.7) No. of patients (%)
- Vomiting (any AE) (28 mg m^–2 (n=3)): 1 (33.3) No. of patients (%)
- AE (treatment-emergent) (47 mg m^–2 (n=4)): 4 (100.0) No. of patients (%)
- Abdominal pain (any AE) (47 mg m^–2 (n=4)): 0 No. of patients (%)
- Acne (any AE) (47 mg m^–2 (n=4)): 1 (25.0) No. of patients (%)
- Anaemia (any AE) (47 mg m^–2 (n=4)): 1 (25.0) No. of patients (%)
- Anorexia (any AE) (47 mg m^–2 (n=4)): 0 No. of patients (%)
- Back pain (any AE) (47 mg m^–2 (n=4)): 0 No. of patients (%)
- Diarrhoea (any AE) (47 mg m^–2 (n=4)): 2 (50.0) No. of patients (%)
- Dizziness (any AE) (47 mg m^–2 (n=4)): 0 No. of patients (%)
- Fatigue (any AE) (47 mg m^–2 (n=4)): 0 No. of patients (%)
- Haemoglobin decreased (any AE) (47 mg m^–2 (n=4)): 0 No. of patients (%)
- Hair disorder (any AE) (47 mg m^–2 (n=4)): 1 (25.0) No. of patients (%)
- Headache (any AE) (47 mg m^–2 (n=4)): 0 No. of patients (%)
- Herpes simplex infection (any AE) (47 mg m^–2 (n=4)): 0 No. of patients (%)
- Hypertension (any AE) (47 mg m^–2 (n=4)): 2 (50.0) No. of patients (%)
- LRTI (any AE) (47 mg m^–2 (n=4)): 0 No. of patients (%)
- Musculoskeletal chest pain (any AE) (47 mg m^–2 (n=4)): 0 No. of patients (%)
- Nausea (any AE) (47 mg m^–2 (n=4)): 0 No. of patients (%)
- Oral herpes (any AE) (47 mg m^–2 (n=4)): 0 No. of patients (%)
- Rhinitis (any AE) (47 mg m^–2 (n=4)): 1 (25.0) No. of patients (%)
- Serious AE (47 mg m^–2 (n=4)): 0 No. of patients (%)
- Treatment-related AE (47 mg m^–2 (n=4)): 3 (75.0) No. of patients (%)
- Vomiting (any AE) (47 mg m^–2 (n=4)): 1 (25.0) No. of patients (%)
- AE (treatment-emergent) (71 mg m^–2 (n=4)): 4 (100.0) No. of patients (%)
- Abdominal pain (any AE) (71 mg m^–2 (n=4)): 0 No. of patients (%)
- Acne (any AE) (71 mg m^–2 (n=4)): 1 (25.0) No. of patients (%)
- Anaemia (any AE) (71 mg m^–2 (n=4)): 0 No. of patients (%)
- Anorexia (any AE) (71 mg m^–2 (n=4)): 0 No. of patients (%)
- Back pain (any AE) (71 mg m^–2 (n=4)): 0 No. of patients (%)
- Diarrhoea (any AE) (71 mg m^–2 (n=4)): 2 (50.0) No. of patients (%)
- Dizziness (any AE) (71 mg m^–2 (n=4)): 2 (50.0) No. of patients (%)
- Fatigue (any AE) (71 mg m^–2 (n=4)): 1 (25.0) No. of patients (%)
- Haemoglobin decreased (any AE) (71 mg m^–2 (n=4)): 1 (25.0) No. of patients (%)
- Hair disorder (any AE) (71 mg m^–2 (n=4)): 1 (25.0) No. of patients (%)
- Headache (any AE) (71 mg m^–2 (n=4)): 2 (50.0) No. of patients (%)
- Herpes simplex infection (any AE) (71 mg m^–2 (n=4)): 1 (25.0) No. of patients (%)
- Hypertension (any AE) (71 mg m^–2 (n=4)): 2 (50.0) No. of patients (%)
- LRTI (any AE) (71 mg m^–2 (n=4)): 1 (25.0) No. of patients (%)
- Musculoskeletal chest pain (any AE) (71 mg m^–2 (n=4)): 0 No. of patients (%)
- Nausea (any AE) (71 mg m^–2 (n=4)): 2 (50.0) No. of patients (%)
- Oral herpes (any AE) (71 mg m^–2 (n=4)): 1 (25.0) No. of patients (%)
- Rhinitis (any AE) (71 mg m^–2 (n=4)): 1 (25.0) No. of patients (%)
- Serious AE (71 mg m^–2 (n=4)): 2 (50) No. of patients (%)
- Treatment-related AE (71 mg m^–2 (n=4)): 4 (100.0) No. of patients (%)
- Death (71 mg m^–2 (n=4), considered unrelated to medication): 1 (25) No. of patients (%)
- AE (treatment-emergent) (99 mg m^–2 (n=4)): 4 (100.0) No. of patients (%)
